Experiments:
[1] = system: barnyardgrass; assay: Test C preemergence; format: in vivo, Echinochloa crusgalli; conditions: for Plant response rating, Barnyardgrass: Preemergence; for Barnyardgrass plant response rating: preemergence
Procedure, shortened: (§1)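 Seeds in loam–sand blend received preemergence directed soil spray of test chemicals in non-phytotoxic solvent with surfactant; postemergence treatment was applied at one- to two-leaf stage (2–10 cm). After 10 days in greenhouse, injury rated visually versus untreated controls, 0 (no effect) to 100 (complete control).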

[2] = system: blackgrass; assay: Test C preemergence; format: in vivo, Alopecurus myosuroides; conditions: for Plant response rating, Blackgrass: Preemergence; for Blackgrass plant response rating: preemergence
Procedure, shortened: as §1

[3] = system: corn; assay: Test C preemergence; format: in vivo, Zea mays; conditions: for Plant response rating, Corn: Preemergence; for Corn plant response rating: preemergence
Procedure, shortened: as §1

[4] = system: green foxtail; assay: Test C preemergence; format: in vivo, Setaria viridis; conditions: for Plant response rating, Foxtail, Green: Preemergence; for Foxtail, Green plant response rating: preemergence
Procedure, shortened: as §1

[5] = system: kochia; assay: Test C preemergence; format: in vivo, Bassia scoparia; conditions: for Plant response rating, Kochia: Preemergence
Procedure, shortened: as §1

[6] = system: oat, wild; assay: Test C preemergence; format: in vivo, Avena fatua; conditions: for Plant response rating, Oat, Wild: Preemergence; for Oat, Wild plant response rating: preemergence
Procedure, shortened: as §1

[7] = system: pigweed, palmer; assay: Test C preemergence; format: in vivo, Amaranthus palmeri; conditions: for Plant response rating, Pigweed, Palmer: Preemergence; for Pigweed, Palmer plant response rating: preemergence
Procedure, shortened: as §1

[8] = system: ragweed; assay: Test C preemergence; format: in vivo, Ambrosia artemisiifolia; conditions: for Plant response rating, Ragweed: Preemergence; for Ragweed plant response rating: preemergence
Procedure, shortened: as §1

[9] = system: ryegrass, Italian; assay: Test C preemergence; format: in vivo, Lolium multiflorum; conditions: for Plant response rating, Ryegrass, Italian: Preemergence; for Ryegrass, Italian plant response rating: preemergence
Procedure, shortened: as §1

[10] = system: soybean; assay: Test C preemergence; format: in vivo, Glycine max; conditions: for Plant response rating, Soybean: Preemergence; for Soybean plant response rating: preemergence
Procedure, shortened: as §1

[11] = system: wheat; assay: Test C preemergence; format: in vivo, Triticum aestivum; conditions: for Plant response rating, Wheat: Preemergence; for Wheat plant response rating: preemergence
Procedure, shortened: as §1

[12] = system: barnyardgrass; assay: Test C postemergence; format: in vivo, Echinochloa crusgalli; conditions: 10 days
Procedure, shortened: as §1

[13] = system: blackgrass; assay: Test C postemergence; format: in vivo, Alopecurus myosuroides; conditions: 10 days
Procedure, shortened: as §1

[14] = system: corn; assay: Test C postemergence; format: in vivo, Zea mays; conditions: 10 days
Procedure, shortened: as §1

[15] = system: green foxtail; assay: Test C postemergence; format: in vivo, Setaria viridis; conditions: 10 days
Procedure, shortened: as §1

[16] = system: kochia; assay: Test C postemergence; format: in vivo, Bassia scoparia; conditions: 10 days
Procedure, shortened: as §1

[17] = system: oat, wild; assay: Test C postemergence; format: in vivo, Avena fatua; conditions: 10 days
Procedure, shortened: as §1

[18] = system: pigweed, palmer; assay: Test C postemergence; format: in vivo, Amaranthus palmeri; conditions: 10 days
Procedure, shortened: as §1

[19] = system: ragweed; assay: Test C postemergence; format: in vivo, Ambrosia artemisiifolia; conditions: 10 days
Procedure, shortened: as §1

[20] = system: ryegrass, Italian; assay: Test C postemergence; format: in vivo, Lolium multiflorum; conditions: 10 days
Procedure, shortened: as §1

[21] = system: soybean; assay: Test C postemergence; format: in vivo, Glycine max; conditions: 10 days
Procedure, shortened: as §1

[22] = system: wheat; assay: Test C postemergence; format: in vivo, Triticum aestivum; conditions: 10 days
Procedure, shortened: as §1

[23] = system: galium; assay: Test C postemergence; format: in vivo, Galium aparine; conditions: 10 days
Procedure, shortened: as §1

[24] = system: horseweed; assay: Test C postemergence; format: in vivo, Erigeron canadensis; conditions: 10 days
Procedure, shortened: as §1

[25] = system: barnyardgrass; assay: Test D flooded paddy test; format: in vivo, Echinochloa crus-galli; conditions: 250 g ai/ha, applied to paddy water, visual rating after 13 to 14 days, scale 0 to 100 (0 no effect, 100 complete control)
Procedure, shortened: (§2)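 Seedlings reached the 2-leaf stage, then pots were flooded to 3 cm over the soil surface. Compound was applied into the water, depth was maintained, and plants stayed in the greenhouse 13 to 14 days before visual scoring (0–100) relative to controls.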

[26] = system: ducksalad; assay: Test D flooded paddy test; format: in vivo, Heteranthera limosa; conditions: 250 g ai/ha, applied to paddy water, visual rating after 13 to 14 days, scale 0 to 100 (0 no effect, 100 complete control)
Procedure, shortened: as §2

[27] = system: rice; assay: Test D flooded paddy test; format: in vivo, Oryza sativa; conditions: 250 g ai/ha, applied to paddy water, visual rating after 13 to 14 days, scale 0 to 100 (0 no effect, 100 complete control)
Procedure, shortened: as §2

[28] = system: sedge, umbrella; assay: Test D flooded paddy test; format: in vivo, Cyperus difformis; conditions: 250 g ai/ha, applied to paddy water, visual rating after 13 to 14 days, scale 0 to 100 (0 no effect, 100 complete control)
Procedure, shortened: as §2

[29] = 500 g ai/ha, visual rating after 10 days, 0 to 100 scale (0 no effect, 100 complete control)
[30] = Test C, 125 g ai/ha, 0 to 100 scale (0 no effect, 100 complete control)
[31] = 125 g ai/ha, postemergence, 0 to 100 scale, 0 no effect, 100 complete control
[32] = Postemergence, 500 g ai/ha, visual 0 to 100 scale (0 no effect, 100 complete control)
[33] = 500 g ai/ha, 0 to 100 scale (0 no effect, 100 complete control)
[34] = 125 g ai/ha, 0 to 100 scale, 0 no effect, 100 complete control
[35] = 500 g ai/ha, postemergence, 0 to 100 scale (0 no effect, 100 complete control)
[36] = Postemergence, 125 g ai/ha, 0 to 100 scale (0 no effect, 100 complete control)

COC[C@H]1CN(C(=O)c2cc(-n3cncn3)ccc2C)c2cccc(Cl)c2O1 [Compound 263]
100: Plant response rating, Foxtail, Green [4, 29] | Plant response rating, Pigweed, Palmer [7, 29] | Plant response rating, Soybean [21, 31] | Plant response rating, Soybean [21, 32] | Plant response rating, Galium [23, 31] | Plant response rating, Galium [23, 32]
20: Corn plant response rating [3, 30] | Wheat plant response rating [11, 30] | Plant response rating, Horseweed [24, 32] | Plant response rating, Barnyardgrass (Flood) [25]
50: Blackgrass plant response rating [2, 30] | Plant response rating, Oat, Wild [17, 32]
30: Oat, Wild plant response rating [6, 30] | Plant response rating, Ragweed [8, 29] | Plant response rating, Corn [14, 31] | Plant response rating, Wheat [22, 31]
85: Plant response rating, Sedge, Umbrella (Flood) [28]
0: Ragweed plant response rating [8, 30] | Plant response rating, Horseweed [24, 31] | Plant response rating, Rice (Flood) [27]
90: Plant response rating, Barnyardgrass [1, 29] | Plant response rating, Blackgrass [2, 29] | Foxtail, Green plant response rating [4, 30] | Plant response rating, Ryegrass, Italian [9, 29] | Plant response rating, Soybean [10, 29] | Plant response rating, Barnyardgrass [12, 32] | Plant response rating, Blackgrass [13, 32] | Plant response rating, Corn [14, 32] | Plant response rating, Foxtail, Green [15, 32] | Plant response rating, Ragweed [19, 32] | Plant response rating, Ryegrass, Italian [20, 32]
40: Plant response rating, Wheat [11, 29] | Plant response rating, Pigweed, Palmer [18, 31] | Plant response rating, Ragweed [19, 31]
80: Ryegrass, Italian plant response rating [9, 30] | Soybean plant response rating [10, 30] | Plant response rating, Blackgrass [13, 31] | Plant response rating, Foxtail, Green [15, 31] | Plant response rating, Pigweed, Palmer [18, 32] | Plant response rating, Ryegrass, Italian [20, 31] | Plant response rating, Wheat [22, 32]
65: Plant response rating, Ducksalad (Flood) [26]
10: Plant response rating, Oat, Wild [17, 31]
70: Barnyardgrass plant response rating [1, 30] | Plant response rating, Kochia [5, 29] | Plant response rating, Oat, Wild [6, 29] | Pigweed, Palmer plant response rating [7, 30] | Plant response rating, Barnyardgrass [12, 31] | Plant response rating, Kochia [16, 31] | Plant response rating, Kochia [16, 32]
60: Plant response rating, Corn [3, 29]

C[C@H]1CN(C(=O)c2cccc(-n3cnc(C4CC4)n3)c2)c2cccc(Cl)c2O1 [Compound 325]
10: Corn plant response rating [3, 33] | Plant response rating, Corn [3, 34] | Plant response rating, Wheat [11, 34] | Plant response rating, Blackgrass [13, 36] | Plant response rating, Oat, Wild [17, 36]
50: Plant response rating, Corn [14, 35] | Plant response rating, Ragweed [19, 36]
80: Blackgrass plant response rating [2, 33] | Plant response rating, Barnyardgrass [12, 35] | Plant response rating, Ryegrass, Italian [20, 35]
75: Plant response rating, Sedge, Umbrella (Flood) [28]
90: Kochia plant response rating ([5]; 500 g ai/ha, preemergence, 0 to 100 scale (0 no effect, 100 complete control)) | Oat, Wild plant response rating [6, 33] | Ryegrass, Italian plant response rating [9, 33] | Plant response rating, Foxtail, Green [15, 35] | Plant response rating, Kochia [16, 35] | Plant response rating, Kochia [16, 36] | Plant response rating, Pigweed, Palmer [18, 36]
0: Plant response rating, Horseweed [24, 36] | Plant response rating, Barnyardgrass (Flood) [25] | Plant response rating, Rice (Flood) [27]
70: Ragweed plant response rating [8, 33] | Plant response rating, Blackgrass [13, 35] | Plant response rating, Oat, Wild [17, 35] | Plant response rating, Ragweed [19, 35]
40: Plant response rating, Barnyardgrass [1, 34] | Plant response rating, Kochia [5, 34] | Soybean plant response rating [10, 33] | Plant response rating, Soybean [10, 34] | Plant response rating, Barnyardgrass [12, 36]
100: Barnyardgrass plant response rating [1, 33] | Foxtail, Green plant response rating [4, 33] | Plant response rating, Foxtail, Green [4, 34] | Pigweed, Palmer plant response rating [7, 33] | Plant response rating, Pigweed, Palmer [7, 34] | Plant response rating, Pigweed, Palmer [18, 35] | Plant response rating, Soybean [21, 35] | Plant response rating, Soybean [21, 36] | Plant response rating, Galium [23, 35] | Plant response rating, Galium [23, 36]
20: Plant response rating, Ragweed [8, 34] | Plant response rating, Wheat [22, 36]
35: Plant response rating, Ducksalad (Flood) [26]
30: Wheat plant response rating [11, 33] | Plant response rating, Corn [14, 36] | Plant response rating, Ryegrass, Italian [20, 36]
60: Plant response rating, Blackgrass [2, 34] | Plant response rating, Oat, Wild [6, 34] | Plant response rating, Ryegrass, Italian [9, 34] | Plant response rating, Foxtail, Green [15, 36] | Plant response rating, Wheat [22, 35] | Plant response rating, Horseweed [24, 35]
